Experimental data taken from patent US20230097090A1, “IMPROVED LIPID NANOPARTICLES FOR DELIVERY OF NUCLEIC ACIDS” (ACUITAS THERAPEUTICS, INC., priority 2019, published 2023).

assay: pKa of representative cationic lipids; format: physicochemical; conditions: Table 2, lipids of Formula (II)

SMILES | pKa
CCCCCCCCC(=O)N(CCCN(C)C)C(CCCCCCCCCOC(=O)C(CCCC)CCCCCC)CCCCCCCCCOC(=O)C(CCCC)CCCCCC (stereo not shown) [II-17] | 6.27
CCCCC(CCCC)OC(=O)CCCCCCCCC(CCCCCCCCC(=O)OC(CCCC)CCCC)N(CCCN(C)C)C(=O)CCCCCCCC(=O)OC(CCCC)CCCC [II-24] | 6.14

same assay, conditions: first Table 12, representative lipid compounds XIII

SMILES | pKa
CCCCCCCCCN(C(=O)CCCN(C)C)C(CCCCCCCCCOC(=O)C(CCCC)CCCCCC)CCCCCCCCCOC(=O)C(CCCC)CCCCCC (stereo not shown) [XIII-32] | 6.41
CCCCCCCCCCN(C(=O)CCCCN(CC)CC)C(CCCCCCCCC(=O)OCC(CCCC)CCCCCC)CCCCCCCCC(=O)OCC(CCCC)CCCCCC (stereo not shown) [XIII-8] | 6.68
CCCCCCCCCCN(C(=O)CCCCN(CCCC)CCCC)C(CCCCCCCCC(=O)OCC(CCCC)CCCCCC)CCCCCCCCC(=O)OCC(CCCC)CCCCCC (stereo not shown) [XIII-31] | 5.05
CCCCCCCCCCN(C(=O)CCCCN(C)C)C(CCCCCCCCC(=O)OCC(CCCC)CCCCCC)CCCCCCCCC(=O)OCC(CCCC)CCCCCC (stereo not shown) [XIII-7] | 6.74
CCCCCCCCCCN(C(=O)CCN1CCCC1)C(CCCCCCCCC(=O)OCC(CCCC)CCCCCC)CCCCCCCCC(=O)OCC(CCCC)CCCCCC (stereo not shown) [XIII-33] | 6.19
CCCCCCCCCCN(C(=O)CCCCN1CCCC1)C(CCCCCCCCC(=O)OCC(CCCC)CCCCCC)CCCCCCCCC(=O)OCC(CCCC)CCCCCC (stereo not shown) [XIII-9] | 6.83
CCCCCCCCCCN(C(=O)CCCN1CCCC1)C(CCCCCC(=O)OCC(CCCCCC)CCCCCCCC)CCCCCC(=O)OCC(CCCCCC)CCCCCCCC (stereo not shown) [XIII-29] | 6.81
CCCCCCCCCN(C(=O)CCN(C)C)C(CCCCCCCCC(=O)OCC(CCCC)CCCCCC)CCCCCCCCC(=O)OCC(CCCC)CCCCCC (stereo not shown) [XIII-25] | 6.2
CCCCCCCCCCN(C(=O)CCCN(C)C)C(CCCCCC(=O)OCC(CCCCCC)CCCCCCCC)CCCCCC(=O)OCC(CCCCCC)CCCCCCCC (stereo not shown) [XIII-16] | 6.77
CCCCCCC(CCCC)COC(=O)CCCCCCCCC(CCCCCCCCC(=O)OCC(CCCC)CCCCCC)N(CC(CC)CCCC)C(=O)CCCN(C)C (stereo not shown) [XIII-20] | 6.84
CCCCCCCCCCN(C(=O)CCCN(C)C)C(CCCCCCCCC(=O)OCC(CCCC)CCCCCC)CCCCCCCCC(=O)OCC(CCCC)CCCCCC (stereo not shown) [XIII-18] | 6.47
